In paper PMC12028158, “Synthesis and In Vitro Evaluation of the Anticancer Effect of Novel Phosphonium Vindoline Derivatives” (International Journal of Molecular Sciences, 2025):

Tests used:
[1] = system: A2780; test: MTT antiproliferative assay; type: cell-based, human
Procedure: (§1) The antiproliferative properties of the tested compounds were additionally determined using the MTT assay against a panel of human adherent cancer cell lines isolated from breast (MCF-7 and MDA-MB-231), cervical (HeLa and SiHa), and ovarian (A2780) tumors and also on the NIH/3T3 fibroblast cell line (Table 3). IC50 values were calculated from a wider concentration range (0.1–30 μM) when higher than 50% cell growth inhibition was obtained at 10 μM (Table 4). Cisplatin was used as a reference compound. […] The noncancerous fibroblast cell line NIH/3T3 was used to gather preliminary data regarding the cancer selectivity of vindolin derivatives. […] The tumor selectivity of compound 9g, expressed as the ratio of IC50 on cancer cells and fibroblasts, is substantially higher than that of cisplatin (Table 4).
(§2) The antiproliferative effects of the prepared derivatives were evaluated in vitro using the MTT assay against a panel of human adherent cancer cell lines, including breast (MDA-MB-231, MCF-7), cervical (SiHa, HeLa), and ovarian (A2780) cancer cells. The noncancerous fibroblast cell line NIH/3T3 was included to obtain data concerning the tumor selectivity of the test substances. All cell lines were sourced from the European Collection of Cell Cultures (Salisbury, UK), except for SiHa (American Tissue Culture Collection (Manassas, VA, USA). All cell lines were maintained in Eagle’s Minimal Essential Medium (EMEM) supplemented with 10% fetal bovine serum (FBS), 1% non-essential amino acids, and a mixture of penicillin, streptomycin, and amphotericin B. The cells were maintained in a humidified atmosphere containing 5% CO2 at 37 °C. The media and the cell culture supplements were procured from Capricorn Scientific Ltd. (Ebsdorfergrund, Germany). Cells were seeded into 96-well microplates at 5000/well and, the next day, treated with vindoline derivatives at two concentrations (10 or 30 μM) for 72 h under cell culturing conditions. […] When higher than 50% cell growth inhibition was observed, the assay was repeated using a wide concentration range (0.1–30 μM). The IC50 values were calculated using GraphPad Prism software 10.3.1 (GraphPad Software, San Diego, CA, USA). Two independent experiments were performed with at least five replicates per condition.

[2] = system: HeLa; test: MTT antiproliferative assay; type: cell-based, human
Procedure: as §1, §2

[3] = system: MCF-7; test: MTT antiproliferative assay; type: cell-based, human
Procedure: as §1, §2

[4] = system: MDA-MB-231; test: MTT antiproliferative assay; type: cell-based, human
Procedure: as §1, §2

[5] = system: SiHa; test: MTT antiproliferative assay; type: cell-based, human
Procedure: as §1, §2

[6] = system: A2780 cells; test: Cell cycle analysis (propidium iodide flow cytometry); type: cell-based, human
Procedure: Based on its promising IC50 and selectivity, compound 9g was selected for further investigations, including cell cycle analysis. Treatment with derivative 9g induced concentration- and time-dependent cell cycle disturbances in A2780 ovarian cancer cells, accompanied by apoptosis (Figure 3). […] After a 48 h exposure, the lower concentration maintained this pattern (G0/G1 elevation and S and G2/M reduction).
A2780 cells were seeded onto 12-well plates at densities of 200,000 cells per well and the plates were then incubated overnight under standard cell culture conditions. Then, the media were removed and the cells in each well were washed with phosphate-buffered saline (PBS) and treated with 1000 µL of fresh medium containing 1.5 or 3.0 µM of compound 9g for 24 or 48 h. After the incubation, the cells were washed with PBS and harvested using trypsinization. The cell suspensions were centrifuged at 1100 rpm for 5 min at room temperature. The cells were rewashed and fixed in 500 µL of cold 70% ethanol for 30 min. Following the fixation, cells were centrifuged at 1300 rpm for 5 min at 4 °C and the pellets were resuspended in 300 µL staining solution (containing 10 µg/mL propidium iodide, 0.1% Triton-X, 0.1% sodium citrate, and 10 µg/mL RNase-A in water). The samples were stored in the dark at room temperature for 30 min. The stained cells were then analyzed using a flow cytometer (CytoFLEX, Beckman Coulter, Brea, CA, USA), recorded by CytExpert Software 2.5.0.77 (Beckman Coulter), ensuring that at least 20,000 events per sample were evaluated. The percentages of cells in different phases of the cell cycle (subG1, G1, S, and G2/M) were determined using ModFit LT 3.3.11 software (Verity Software House, Topsham, ME, USA); the subG1 fraction indicated the apoptotic cell population, as referenced by Vermes et al.. […]

[7] = system: panel of human adherent cancer cell lines; test: MTT antiproliferative assay, whole cancer panel; type: cell-based; details: Homo sapiens
Procedure: as §1, §2

Structure (SMILES): CC[C@]12C=CCN3CC[C@@]4(c5ccc(OC)cc5N(C)[C@H]4[C@@](O)(C(=O)OC)[C@@H]1OC(=O)CCC[P+](c1ccccc1)(c1ccccc1)c1ccccn1)[C@@H]32 [9g]
- inhibition at 10 µM ([1]; Homo sapiens, A2780, 10 μM, 72 h, read-out: Growth Inhibition (%) ± SEM): 79.4 ± 2.63%
- inhibition at 30 µM ([1]; Homo sapiens, A2780, 30 μM, 72 h, read-out: Growth Inhibition (%) ± SEM (converted)): 85.5%
- IC50 ([1]; Homo sapiens, A2780, MTT, 72 h, read-out: IC50 Value (μM) ± SEM): 1.5 ± 0.2 µM
- Selectivity Ratio ([1]; ratio of IC50 on A2780 cells and NIH/3T3 fibroblasts): 0.10
- inhibition at 10 µM ([2]; Homo sapiens, HeLa, 10 μM, 72 h, read-out: Growth Inhibition (%) ± SEM): 61.5 ± 2.35%
- inhibition at 30 µM ([2]; Homo sapiens, HeLa, 30 μM, 72 h, read-out: Growth Inhibition (%) ± SEM (converted)): 68.5%
- IC50 ([2]; Homo sapiens, HeLa, MTT, 72 h, read-out: IC50 Value (μM) ± SEM): 6.48 ± 0.12 µM
- Selectivity Ratio ([2]; ratio of IC50 on HeLa cells and NIH/3T3 fibroblasts): 0.45
- inhibition at 10 µM ([3]; Homo sapiens, MCF7, MCF-7, 10 μM, 72 h, read-out: Growth Inhibition (%) ± SEM): 81.9 ± 0.84%
- inhibition at 30 µM ([3]; Homo sapiens, MCF7, MCF-7, 30 μM, 72 h, read-out: Growth Inhibition (%) ± SEM (converted)): 89.9%
- IC50 ([3]; Homo sapiens, MCF7, MCF-7, MTT, 72 h, read-out: IC50 Value (μM) ± SEM): 2.56 ± 0.1 µM
- Selectivity Ratio ([3]; ratio of IC50 on MCF-7 cells and NIH/3T3 fibroblasts): 0.18
- inhibition at 10 µM ([4]; Homo sapiens, MDA-MB-231, 10 μM, 72 h, read-out: Growth Inhibition (%) ± SEM): 72.04 ± 0.35%
- inhibition at 30 µM ([4]; Homo sapiens, MDA-MB-231, 30 μM, 72 h, read-out: Growth Inhibition (%) ± SEM (converted)): 87.7%
- IC50 ([4]; Homo sapiens, MDA-MB-231, MTT, 72 h, read-out: IC50 Value (μM) ± SEM): 3.35 ± 0.12 µM
- Selectivity Ratio ([4]; ratio of IC50 on MDA-MB-231 cells and NIH/3T3 fibroblasts): 0.23
- inhibition at 10 µM ([5]; Homo sapiens, SiHa, 10 μM, 72 h, read-out: Growth Inhibition (%) ± SEM): 62.5 ± 0.87%
- inhibition at 30 µM ([5]; Homo sapiens, SiHa, 30 μM, 72 h, read-out: Growth Inhibition (%) ± SEM (converted)): 83.8%
- IC50 ([5]; Homo sapiens, SiHa, MTT, 72 h, read-out: IC50 Value (μM) ± SEM): 2.42 ± 0.05 µM
- Selectivity Ratio ([5]; ratio of IC50 on SiHa cells and NIH/3T3 fibroblasts): 0.17
- S and G2/M phase populations ([6]; A2780, 1.5 μM and 3.0 μM, 24 h): decreasing
- proportion of cells in the G0/G1 phase ([6]; A2780, 1.5 μM and 3.0 μM, 24 h): significantly increased
- subG1 cell population ([6]; A2780, particularly after the more prolonged exposure (48 h)): remarkable increase
- inhibition at 10 µM ([7]; 10 μM, against all tested cancer cells, read-out: cell growth inhibition): > 60%
- IC50 ([7]; range over the cancer cells): 1500 to 6480 nM
